In PubChem BioAssay (NCI):
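Grown in 96-well plates, cells were treated for 48 hours with each compound at five concentrations. Insufficient inhibition: endpoint recorded as highest concentration tested. GI50 is the concentration that inhibits growth by half. TGI is the concentration that stops growth completely.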

Key:
Test in all cases: NCI-60 cell line screen, 48 h
[1] = system: BT-549 breast
[2] = system: DU-145 prostate
[3] = system: HCT-15 colon
[4] = system: NCI-H460 lung
[5] = system: RXF 393 renal
[6] = system: SK-MEL-2 melanoma
[7] = system: SN12C renal
[8] = system: UACC-257 melanoma
[9] = system: UACC-62 melanoma
[10] = system: CCRF-CEM leukemia

SMILES	GI50 [1] [µM]	TGI [1] [µM]	GI50 [2] [µM]	TGI [2] [µM]	GI50 [3] [µM]	TGI [3] [µM]	GI50 [4] [µM]	TGI [4] [µM]	GI50 [5] [µM]	TGI [5] [µM]	GI50 [6] [µM]	TGI [6] [µM]	GI50 [7] [µM]	TGI [7] [µM]	GI50 [8] [µM]	TGI [8] [µM]	GI50 [9] [µM]	TGI [9] [µM]	GI50 [10] [µM]	TGI [10] [µM]
CCOC(=O)C(=Cc1cccc(Cl)c1)C(=O)OCC	2.06	5.07	2.21	5.4	1.96	5.27	3.71	12.6	1.91	3.53	2.1	4.24	1.65	3.54	5.05	18	1.65	3.58	–	–
COc1ccc(-c2oc(=O)ccc2-c2cc(OC)c(OC)c(OC)c2)cc1F	19.7	88.4	32	> 100	5.42	> 100	5.43	> 100	11.6	29.1	6.98	> 100	38.1	> 100	31.5	> 100	10.2	> 100	26.6	> 100
Cc1nc2ccccc2nc1-c1ccc(N=[N+]([O-])c2ccc(-c3nc4ccccc4nc3C)cc2)cc1	–	> 100	–	> 100	–	> 100	–	> 100	–	> 95.1	–	> 100	–	> 100	–	> 100	–	> 100	–	> 100
O=C(c1ccc(Cl)cc1)c1cnc(Nc2ccccc2Cl)s1	–	51.2	–	48.7	–	51.6	–	> 59.8	–	42.8	–	30.7	–	52.1	–	47.2	–	66.4	–	> 100
Oc1cc(O)c2c(c1)OC(c1ccc(O)c(O)c1)C(OC1(c3cc(O)c(O)c(O)c3)Oc3cc(O)cc(O)c3C(O)C1O)C2 (centres undefined)	–	> 83.6	–	> 75.5	–	> 100	–	36.8	–	> 100	–	> 69.9	–	46.2	–	> 100	–	> 100	–	43.7
O=C(CC(O)(C(F)(F)F)C(F)(F)F)c1cc(CC(=O)C(O)(C(F)(F)F)C(F)(F)F)cc(CC(=O)C(O)(C(F)(F)F)C(F)(F)F)c1	–	4.93	–	> 10	–	> 8.79	–	2.25	–	4.43	–	3.71	–	6.71	–	4.56	–	4.11	–	> 10
Cn1cnc([N+](=O)[O-])c1S(=O)(=O)Oc1ccccc1	20.7	45.4	5.6	17	2.74	> 28.4	23.9	> 72.8	2.23	6.04	15.5	40.9	21.5	> 71.7	3.84	16.3	14.9	32.2	3.75	> 100
Nc1nccc2c1ccn2-c1ccc(NC(=O)c2ccc(N3CCOCC3)c(C(F)(F)F)c2)cc1	1.03	24.7	2.66	20.5	0.811	10.5	0.352	1.65	0.158	0.378	1.11	5.49	4.86	20.4	2.15	8.61	0.337	1.19	0.452	> 100
CC1=CC(=O)[C@@H](O)[C@]2(C)[C@H]3[C@@]4(O)OC[C@]35[C@H]([C@@H](C)[C@H]4O)[C@@H](O)C(=O)O[C@@H]5C[C@@H]12	–	5.17	–	1.69	–	2.48	–	4.85	–	4.46	–	1.16	–	–	–	1.77	–	6.29	–	1.45
COc1cc(C2c3cc4c(cc3C(O)C(CO)C2CO)OCO4)cc(OC)c1OC (centres undefined)	1.92	> 54.9	0.965	15.4	4.41	> 100	0.463	> 26.4	1.12	> 100	–	> 100	4.94	> 100	0.67	> 100	0.534	> 100	0.787	> 100
C=CCCCCCCCCCCC1(O)C=CC2=[N+](CCCCCN=C(N)N)CCCN21 (centres undefined)	3.56	13.2	12.2	26.6	4.87	18.6	4.38	19.9	3.19	19.3	21.3	47.2	–	11.3	22.7	> 55.7	13.3	28.9	8.57	40.3
CC1(C)OCCn2c1nc1c(N3CCOCC3)nc(-c3cnc(N)nc3)nc12	0.183	2.91	0.354	> 100	0.241	> 100	0.187	> 100	0.211	1.69	0.372	3.79	0.301	> 48.3	0.197	1.97	0.185	1.42	1.06	> 100
Cn1cc(C2=C(c3cn(C)c4cc(C(N)=O)ccc34)C(=O)NC2=O)c2ccccc21	7.92	> 25	0.987	> 10.2	1.19	> 25	0.854	> 9.8	0.559	1.95	1.44	> 16.1	1.91	13.8	3.66	> 25	2.31	> 16.8	0.951	> 25
CCN(CC)CCOc1ccc(/C=C2\CC3C4CC=C5C[C@@H](O)CC[C@]5(C)C4CC[C@]3(C)C2=O)cc1OC (some centres undefined)	26	> 52.6	9.51	21.4	2.27	6.19	5.42	> 53	5.64	21.5	7.27	78.3	3.54	19.4	2.3	5.5	1.71	3.3	–	> 22
Cc1ccc(-c2nc3ccc([N+](=O)[O-])cc3[nH]2)cc1	–	> 100	–	> 100	–	> 100	–	> 100	–	> 100	–	> 100	–	> 100	–	> 100	–	> 100	–	> 100
